Reference: ChEMBL document CHEMBL4673238, “Discovery of 3-(benzofuran-2-ylmethyl)-1H-indole derivatives as potential autophagy inducers in cervical cancer cells” (Bioorg Med Chem Lett, 2020)
Active and inactive are the calls of the source. The calls are words filed in the database; no cut-off is given here.

Legend:
Assay type in all cases: functional, cell-based
SiHa [1] = experiment: Cytotoxicity against human SiHa cells
C-33-A [2] = experiment: Cytotoxicity against human C-33-A cells
SiHa [3] = experiment: Induction of autophagy in human SiHa cells assessed as vacuole formation incubated for 24 hrs by microscopic analysis
SiHa [4] = experiment: Induction of autophagy in human SiHa cells assessed as decrease in p62 expression at 30 uM measured upto 42 hrs by microscopic analysis; settings: time hrs <=42
C-33-A [5] = experiment: Induction of autophagy in human C-33-A cells assessed as decrease in p62 expression at 30 uM incubated for 42 hrs by microscopic analysis
C-33-A [6] = experiment: Induction of autophagy in human C-33-A cells assessed as increase in LC3I to LC3II conversion at 30 uM incubated for 42 hrs by microscopic analysis
SiHa [7] = experiment: Induction of autophagy in human SiHa cells assessed as […] in GFP-LC3 level by fluorescence microscopy
SiHa [8] = experiment: Induction of autophagy in human SiHa cells assessed as increase in LC3I to LC3II conversion at 30 uM measured upto 42 hrs by microscopic analysis; settings: time hrs <=42

CC(C)(C)c1cc(C(C)(C)C)c2oc(C(c3ccc(Cl)cc3)c3c[nH]c4ccc([N+](=O)[O-])cc34)cc2c1 (stereo not given)
IC50 (SiHa [1]): 36.9 µM
IC50 (C-33-A [2]): 29.4 µM
Activity (SiHa [3]): Active
Activity (SiHa [4]): Active
Activity (C-33-A [5]): Active
Activity (C-33-A [6]): Active
Activity (SiHa [7]): Active
Activity (SiHa [8]): Active

CC(C)(C)c1cc(C(C)(C)C)c2oc(C(c3ccccc3)c3c[nH]c4ccc([N+](=O)[O-])cc34)cc2c1 (stereo not given)
IC50 (SiHa [1]): 48.2 µM

COc1ccc(C(c2cc3cc(C(C)(C)C)cc(C(C)(C)C)c3o2)c2c[nH]c3ccc([N+](=O)[O-])cc23)cc1 (stereo not given)
IC50 (SiHa [1]): > 100 µM

Cc1c(C(c2ccccc2)c2cc3cc(Cl)ccc3o2)[nH]c2ccccc12 (stereo not given)
IC50 (SiHa [1]): 77.9 µM

Clc1ccc2oc(C(c3ccccc3)c3c[nH]c4ccccc34)cc2c1 (stereo not given)
IC50 (SiHa [1]): 58 µM

CC(C)(C)c1cc(C(C)(C)C)c2oc(C(c3ccc(Cl)cc3)c3c[nH]c4ccccc34)cc2c1 (stereo not given)
IC50 (SiHa [1]): 49.8 µM
IC50 (C-33-A [2]): 34.2 µM

COc1ccc2oc(C(c3ccccc3)c3[nH]c4ccccc4c3C)cc2c1 (stereo not given)
IC50 (SiHa [1]): > 100 µM

Cc1[nH]c2ccccc2c1C(c1ccccc1)c1cc2ccccc2o1 (stereo not given)
IC50 (SiHa [1]): 56.5 µM

COc1ccc(C(c2cc3ccccc3o2)c2[nH]c3ccccc3c2C)cc1 (stereo not given)
IC50 (SiHa [1]): > 100 µM

Cc1[nH]c2ccccc2c1C(c1ccccc1)c1cc2cc(C(C)(C)C)cc(C(C)(C)C)c2o1 (stereo not given)
IC50 (SiHa [1]): 72 µM

Cc1[nH]c2ccccc2c1C(c1ccc(Cl)cc1)c1cc2cc(C(C)(C)C)cc(C(C)(C)C)c2o1 (stereo not given)
IC50 (SiHa [1]): 35.9 µM
IC50 (C-33-A [2]): 31.2 µM
Activity (SiHa [3]): Active
Activity (SiHa [4]): Active
Activity (C-33-A [5]): Active
Activity (C-33-A [6]): Active
Activity (SiHa [7]): Active
Activity (SiHa [8]): Active

Cc1[nH]c2ccccc2c1C(c1ccccc1)c1cc2cc(Cl)ccc2o1 (stereo not given)
IC50 (SiHa [1]): 47.5 µM
IC50 (C-33-A [2]): 38.7 µM

O=[N+]([O-])c1ccc2[nH]cc(C(c3ccccc3)c3cc4ccccc4o3)c2c1 (stereo not given)
IC50 (SiHa [1]): 40.4 µM
IC50 (C-33-A [2]): 35.2 µM

COc1ccc2oc(C(c3ccccc3)c3c[nH]c4ccccc34)cc2c1 (stereo not given)
IC50 (SiHa [1]): > 100 µM

COc1ccc(C(c2cc3ccccc3o2)c2c(C)[nH]c3ccccc23)cc1 (stereo not given)
IC50 (SiHa [1]): > 100 µM

CC(C)(C)c1cc(C(C)(C)C)c2oc(C(c3ccccc3)c3c[nH]c4ccccc34)cc2c1 (stereo not given)
IC50 (SiHa [1]): 61.6 µM

Cc1c(C(c2ccc(Cl)cc2)c2cc3ccccc3o2)[nH]c2ccccc12 (stereo not given)
IC50 (SiHa [1]): 72.5 µM

COc1ccc2oc(C(c3ccccc3)c3c(C)[nH]c4ccccc34)cc2c1 (stereo not given)
IC50 (SiHa [1]): > 100 µM

Cc1c(C(c2ccccc2)c2cc3cc(C(C)(C)C)cc(C(C)(C)C)c3o2)[nH]c2ccccc12 (stereo not given)
IC50 (SiHa [1]): > 100 µM

Cc1c(C(c2ccccc2)c2cc3ccccc3o2)[nH]c2ccccc12 (stereo not given)
IC50 (SiHa [1]): > 100 µM

O=[N+]([O-])c1ccc2[nH]cc(C(c3ccccc3)c3cc4cc(Cl)ccc4o3)c2c1 (stereo not given)
IC50 (SiHa [1]): > 100 µM

c1ccc(C(c2cc3ccccc3o2)c2c[nH]c3ccccc23)cc1 (stereo not given)
IC50 (SiHa [1]): 71.1 µM

COc1ccc(C(c2cc3ccccc3o2)c2c[nH]c3ccccc23)cc1 (stereo not given)
IC50 (SiHa [1]): > 100 µM
